“And” between values parts separate entries of the source, which are not always exact repeats. Identical values can stand only once.
How the values were obtained:
[1] = tested on: CEM cells; assay: Toxicity by propidium iodide fluorescence in CEM-GFP cells; format: cell-based; settings: Homo sapiens, CCRF-CEM, 3 µM to 45 µM, 24 h
[2] = target: T1, recombinant PP1α (Oryctolagus cuniculus, UniProt P62139); assay: Malachite green dephosphorylation of RVxF-containing hybrid pRb peptides by PP1α; format: biochemical
T1 construct: purchased New England Biolabs, Ipswich, MA
From the text: Here, we analyzed the effect of 1H4 on the binding of the Tat RVxF sequence to PP1 using hybrid PP1 substrates containing a substrate phosphopeptide linked to RVxF-containing sequences derived from Tat or NIPP1. As the substrate phosphopeptide, we used a retinoblastoma protein-derived HIPR(pS)[…] peptide (pRb) that is efficiently dephosphorylated by PP1 but not by the enzymatically-related PP2A [13]. The pRb peptide was linked to an extended RVxF-containing sequence derived from Tat ([…]) (pRb-Tat peptide) or the central domain of NIPP1 ([…]). To visualize the interaction between pRb-Tat and PP1 we built a computational model of the pRb-Tat peptide with PP1 complex (described in Materials and Methods). Based on this model, the pRb-Tat peptide is able to bind to the RVxF- accommodating groove of PP1 and, at the same time, to reach the active site of PP1 without any tension (Fig. 5A, green spheres; Fig. 5B, gray sticks). The pRb-Tat peptide was efficiently dephosphorylated by PP1 in vitro (Fig. 5C, V0 = 0.31 µM·min^-1). […] Addition of 1H4 at 3-fold molar excess (480 µM) over pRb-Tat (160 µM) inhibited pRb-Tat dephosphorylation and reduced the rate of dephosphorylation (Fig. 5C, V0 = 0.19 µM·min^−1) to the rate of pRb-Tat QACA dephosphorylation (Fig. 5C, V0 = 0.17 µM⋅min^−1). […] To further investigate the effect of 1H4 on the dephosphorylation of the pRb-Tat peptide, we analyzed the initial velocity versus pRb-Tat peptide substrate concentration plots. […] This was expected because the dephosphorylation site and the RVxF-containing sequence were fused into one hybrid substrate and 1H4 interferes with the binding of this substrate to PP1.
Figure 5 1H4 compound competes with RVxF motif. A. Superimposition of pRb-Tat peptide on the complex of PP1 with Spinophilin. PP1 surface is colored after the atom types. The spinophilin peptide is shown as magenta ribbon and the pRb-Tat peptide as orange ribbon. The Val25 and Phe27 residues of pRb-Tat and the Ile449 and Phe 451 residues of Spinophilin are shown as sticks. The 2-(N-morpholino)-ethanesulfonic acid bound in the active site of PP1 is shown in green spheres. The phosphorylated Ser6 residue of pRb-Tat peptide is shown as sticks. B. Phosphorylated Ser 6 residue binds to the active site of PP1. Comparative superimposition of pRb-Tat peptide over the crystal structure of MES bound in the active site of PP1. Catalytic resides are shown as sticks. MES is shown as green sticks, and the phosphorylated Ser6 residue of pRb-Tat peptide is shown as orange sticks. The pRb-Tat peptide is shown as orange ribbon. C. 1H4 inhibits kinetics of pRb-Tat peptide dephosphorylation by PP1α. Recombinant PP1α was assayed with pRb-Tat (WT or QACA mutant, 120 µM) in the absence or presence of 1H4 as indicated. The reactions were stopped at indicated time points and the phosphate release was quantified by malachite green assay. Initial velocity was calculated by linear regression in Prism. D. 1H4 inhibits kinetics of pRb-cdNIPP dephosphorylation by PP1α. Recombinant PP1α was assayed with pRb-cdNIPP1 in the absence or presence of 1H4 as indicated. Mutant pRb cdNIPP1 pA-RATA was used as negative control. The reactions were stopped at indicated time points and the phosphate release was quantified by malachite green assay. Initial velocity was calculated by linear regression in Prism. […] Initial rates of pRb-Tat peptide dephosphorylation by PP1α were assayed at the indicated concentrations of the substrate in the absence or presence of 300 µM 1H4 or non-HIV-1 inhibitory 1G3. The amount of the released phosphate was quantified with malachite green.
Malachite green dephosphorylation assays were carried out with the Ser/Thr phosphatase assay kit (Upstate, Lake Placid, NY) using recombinant PP1α (New England Biolabs, Ipswich, MA). […]

[3] = tested on: CMV promoter; assay: Control CMV promoter transcription (CMV-EGFP) in 293T cells; settings: 10 µM
[4] = tested on: HIV-1 NL4-3; assay: HIV-1 replication in MT4 cells, reverse transcriptase activity; settings: HIV-1 NL4-3, tested at 2, 10, 25 µM, RT activity over 8 days

T1 sequence (P62139 whole entry): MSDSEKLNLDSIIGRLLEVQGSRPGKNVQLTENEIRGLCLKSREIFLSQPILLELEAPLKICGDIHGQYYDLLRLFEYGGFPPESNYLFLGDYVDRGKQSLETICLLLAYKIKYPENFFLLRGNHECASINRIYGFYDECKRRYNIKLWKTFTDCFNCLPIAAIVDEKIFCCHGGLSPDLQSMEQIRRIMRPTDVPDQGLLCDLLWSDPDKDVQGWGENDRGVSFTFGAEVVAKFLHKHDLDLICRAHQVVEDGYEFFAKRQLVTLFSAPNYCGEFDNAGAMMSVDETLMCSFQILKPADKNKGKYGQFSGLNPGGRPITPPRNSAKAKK

COCCNC(=O)COC(=O)c1c2c(nc3ccccc13)/C(=C/c1ccc(O)cc1)CCC2 [1H4]
IC50 [1]: > 25 µM
Effect on and mode of inhibition of pRb-Tat dephosphorylation by PP1α ([2]; 300 µM compound, Lineweaver-Burk plot): competitive
pRB-Tat VMAX ([2]; 300 µM compound, control 16.67, 25% of substrate assumed phosphorylated): 18.20
V0 of pRb-cdNIPP1 dephosphorylation by PP1α in presence of compound ([2]; 1H4 added): 0.37 µM·min^-1 and 0.37 ± 0.01 µM·min^-1
V0 of pRb-Tat dephosphorylation by PP1α in presence of compound ([2]; 1H4 at 3-fold molar excess (480 µM) over pRb-Tat (160 µM)): 0.19 µM·min^-1 and 0.19 ± 0.01 µM·min^-1
Effect on transcription from control CMV promoter [3]: did not inhibit transcription from a control CMV promoter
Concentration from which HIV-1 replication is inhibited [4]: ≥ 10 µM

From paper PMC3387161, “Small Molecules Targeted to a Non-Catalytic “RVxF” Binding Site of Protein Phosphatase-1 Inhibit HIV-1” (PLoS ONE, 2012)
